{"source": "patent US20240076347A1", "about": "“METHODS FOR PREVENTING FUNGAL INFECTIONS” (Cidara Therapeutics, Inc., priority 2016, published 2024)", "key": {"[1]": {"test": "Previous toxicology studies by the IV route", "type": "in vivo, cynomolgus monkeys", "conditions": "up to at least 30 mg/kg"}, "[2]": {"tested_on": "Candida auris", "test": "Murine model of disseminated candidiasis (immunosuppressed CD-1 mice), treatment", "type": "in vivo", "conditions": "20 mg/kg IP", "procedure": "Female 6-8 week old CD-1 mice were immunosuppressed with cyclophosphamide (200 mg/kg) 3 days prior to infection and 150 mg/kg 1 day post-infection. On the day of infection, mice were inoculated with 3×10^7 C. auris blastospores via the lateral tail vein. Mice were randomized into 5 groups (n=5 for colony forming units (CFU) and n=10 for survival): CD101 20 mg/kg administered by intraperitoneal (IP) injection, fluconazole 20 mg/kg administered per os (PO), amphotericin B 0.3 mg/kg IP, and a vehicle control. Treatments were administered 2 hours post-infection (Day 1) and again on Day 4 of the study for a total of 2 doses. Mice were monitored daily and a survival curve was generated. CFU groups were sacrificed on Day 8 of the study. One kidney was removed from each mouse, homogenized, plated on potato dextrose agar (PDA), and incubated at 35° C. for 2 days to determine CFU. The remaining survival mice were monitored until the end of the study (Day 14)."}, "[3]": {"test": "Single-dose plasma pharmacokinetics in mice, IP", "type": "in vivo", "conditions": "IP doses of 1, 4, 16 and 64 mg/kg; for half-life: read-out: elimination half-life, range", "procedure": "Pharmacokinetics. […] Plasma from groups of three mice per time point (1, 3, 6, 12, 24, 48, and 72-h) was collected. The plasma drug concentrations were determined by liquid chromatography-tandem mass spectrometry. A noncompartmental model was used in the pharmacokinetic analysis. Elimination half-life was calculated by nonlinear least-squares technique. The area under the concentration-time curve (AUC) was calculated by the trapezoidal rule. Pharmacokinetic exposures for doses not directly measured in the PK study were estimated by linear extrapolation for higher and lower dose levels and by interpolation for dose levels within the dose range studied given the linear PK results. Protein binding was 99.2%."}, "[4]": {"test": "Plasma protein binding by ultracentrifugation", "type": "in vitro ADME", "conditions": "mouse plasma; read-out: percent of bound CD101, mean (protein binding) (converted)", "procedure": "(§1) Concentrations in plasma ranging from 7 to 60 μg/mL were tested and resulting samples were analyzed by LC-MS/MS."}, "[5]": {"tested_on": "human plasma proteins", "test": "Plasma protein binding by ultracentrifugation", "type": "in vitro ADME", "procedure": "as §1"}, "[6]": {"tested_on": "C. parapsilosis", "test": "Neutropenic murine disseminated candidiasis model, PK/PD target determination", "type": "in vivo, Candida parapsilosis", "conditions": "for Static dose: single IP dose, 168 h", "procedure": "Infection model. A neutropenic, murine, disseminated candidiasis model was used for the treatment studies. The mice were rendered neutropenic (polymorphonuclear cell count, <100/mm3) by injecting 150 mg/kg of cyclophosphamide (Mead Johnson Pharmaceuticals, Evansville, IN) subcutaneously 4 days before infection, 100 mg/kg of cyclophosphamide 1 day before infection, and additional cyclophosphamide doses (100 mg/kg) on Day 2 and Day 4 after infection to ensure neutropenia throughout the 168 h (7 d) study period. Three mice were included in each treatment and control group.\nThe organisms were subcultured on SDA plates 24 h prior to infection. The inoculum was prepared by placing 3 to 5 colonies into 5 ml of sterile pyrogen-free 0.15 M NaCl warmed to 35° C. The final inoculum was adjusted to a 0.6 transmittance at 530 nm. The fungal count of the inoculum determined by viable counts on SDA was 6.1±0.2 log10 CFU/ml.\nDisseminated infection with the Candida strains was achieved by injection of 0.1 ml of the inoculum via the lateral tail vein 2 h prior to the start of antifungal therapy. At the end of the study period, the animals were sacrificed by CO2 asphyxiation. The kidneys of each mouse were aseptically removed and placed in 0.15 M NaCl at 4° C. The kidneys were homogenized and serially diluted 1:10, and the aliquots were plated onto SDA for viable fungal colony counts after incubation for 24 h at 35° C. The lower limit of detection was 100 CFU/ml. The results are expressed as the mean CFU/kidney for three mice.\nTreatment efficacy and pharmacodynamic target determination of CD101. Neutropenic mice were infected with one of 10 Candida strains as described above. […] Five dose levels that varied from 0.25 to 64 mg/kg were administered once in a 0.2-ml volume by IP route for the 168 h study period. Due to enhanced effect against single isolate, additional studies at 0.0156 and 0.0625 mg/kg was examined for C. glabrata 5592. Groups of three mice were used for each dosing regimen and control group. At the end of the treatment period (168 h), the mice were euthanized, and their kidneys were immediately processed for CFU determination as described above.\nData analysis. A sigmoid dose-effect (Hill) model was used to measure the in vivo potency of CD101. The efficacy endpoints included the dose level required to produce a 24 h net static effect (no change in organism burden compared to that at the start of therapy) and the dose required to achieve a 1-log10 reduction in colony counts (relative to the burden at the start of therapy), when achieved. The maximum response (Emax) was measured as the difference in the number of CFU/kidney relative to that of the untreated control animals. The doses associated with the stasis and 1-log10 endpoint for each strain was calculated using the equation: log10 D=[log10 (E/(Emax−E))/N]+log10 ED50, where D is the drug dose, E is the control growth in untreated animals, Emax is the maximal effect, Nis the slope of the dose-response relationship, and ED50 is the dose needed to achieve 50% of the maximal effect. The associated AUC/MIC targets were then calculated for each strain. […] The calculations were performed using both total and free drug concentrations. The coefficient of determination (R^2) was used to estimate the variance that might be due to regression with the PK/PD index. Kruskal-Wallis one-way analysis of variance (ANOVA) was used to determine if the differences in PK/PD targets were significant between the species."}, "[7]": {"conditions": "only two strains achieved the endpoint"}}, "note": "Read-outs that look alike come from different tables or passages of the source. Numbered stars: 1 amine (or outer) side, 2 acyl side, 3 side chain; on linkers, the order of the positions; unused ones are H or OH. Bridge positions count the residues as written; N and C are the ends. Square brackets hold non-standard residues; d marks the D form. Peptide text beside a SMILES is read from it. * marks the point of attachment. ξ: configuration not given here. Orn(4R-OH,5R-OCH2CH2NMe3+) = C[N+](C)(C)CCO[C@@H](N[*:3])[C@H](O)C[C@H](N[*:1])C(=O)[*:2]; pTerphenylCO(4''-OnC5H11) = CCCCCOc1ccc(-c2ccc(-c3ccc(C(=O)*)cc3)cc2)cc1; hTyr(3S-OH,4S-OH) = N[C@H](C(=O)O)[C@H](O)[C@@H](O)c1ccc(O)cc1; X1 = C[C@H]1CN([*:1])C(C(=O)[*:2])C1O; Hyp = O=C(O)[C@@H]1C[C@@H](O)CN1; ξT = CC(O)C(N)C(=O)O"}
{"smiles": "CCCCCOc1ccc(-c2ccc(-c3ccc(C(=O)N[C@H]4C[C@@H](O)[C@@H](OCC[N+](C)(C)C)NC(=O)C5C(O)[C@@H](C)CN5C(=O)[C@H]([C@@H](C)O)NC(=O)[C@H]([C@H](O)[C@@H](O)c5ccc(O)cc5)NC(=O)[C@@H]5C[C@@H](O)CN5C(=O)C(C(C)O)NC4=O)cc3)cc2)cc1", "note": "(stereo partly drawn) [CD101] ({pTerphenylCO(4''-OnC5H11)}-[Orn(4R-OH,5R-OCH2CH2NMe3+)][ξT][Hyp][hTyr(3S-OH,4S-OH)]T[X1]; lactam 1-C)", "values": [{"measurement": "safety and tolerability", "setting": "[1]", "result": "safe and well tolerated"}, {"measurement": "average reduction in kidney CFU", "setting": "[2]; 2 doses (Day 1, Day 4), Day 8, compared to fluconazole, amphotericin B and vehicle groups", "result": 3, "unit": "log"}, {"measurement": "percent survival at the end of the study", "setting": "[2]; 2 doses, Day 14", "result": 80, "unit": "%"}, {"measurement": "AUC", "setting": "[3]; ICR Swiss/CD1, mouse, read-out: AUC0-, range", "result": "93.2 to 40500", "unit": "µg·h/mL"}, {"measurement": "Cmax", "setting": "[3]; ICR Swiss/CD1, mouse, read-out: Peak (Cmax) levels, range", "result": "2600 to 76700", "unit": "ng/mL"}, {"measurement": "half-life", "setting": "[3]; ICR Swiss/CD1, mouse", "result": "28 to 41", "unit": "h"}, {"measurement": "half-life", "setting": "[3]; mouse", "result": "29 to 41", "unit": "h"}, {"measurement": "fraction unbound at 2.5 hr", "setting": "[4]", "result": 0.008}, {"measurement": "percent of bound CD101, mean", "setting": "[5]; human plasma, 7 to 60 μg/mL", "result": 97.4, "unit": "%"}, {"measurement": "higher free fraction in human vs mouse plasma", "setting": "[5]; human vs mouse plasma", "result": "~3", "unit": "×"}, {"measurement": "Stasis 24 h Ave free drug AUC/MIC", "setting": "[6]; 20423.072", "result": 1.39}, {"measurement": "Stasis free drug AUC0-168 h/MIC", "setting": "[6]; 20423.072", "result": 9.74}, {"measurement": "Stasis total drug AUC0-168 h/MIC", "setting": "[6]; 20423.072", "result": 1217.49}, {"measurement": "Static dose", "setting": "[6]; 20423.072", "result": 9.62, "unit": "mg/kg"}, {"measurement": "Stasis 24 h Ave free drug AUC/MIC", "setting": "[6]; 20477.048", "result": 3.82}, {"measurement": "Stasis free drug AUC0-168 h/MIC", "setting": "[6]; 20477.048", "result": 26.72}, {"measurement": "Stasis total drug AUC0-168 h/MIC", "setting": "[6]; 20477.048", "result": 3339.42}, {"measurement": "Static dose", "setting": "[6]; 20477.048", "result": 52.96, "unit": "mg/kg"}, {"measurement": "median stasis 24 h free drug AUC/MIC target", "setting": "[6]; [7]", "result": 2.61}, {"measurement": "median stasis free drug AUC0-168/MIC target", "setting": "[6]; [7]", "result": 18.2}]}
